In patent US9586993B2, “CD44v6-derived peptides for treating pancreatic cancer” (AMCURE GMBH, priority 2012, dated 2017):

Legend:
[1] = test system: Met activation and downstream signaling to ERK; assay: HGF-induced activation of Met and ERK in L3.6p1 cells (western blot); assay type: cell-based, human; conditions: HGF 10 ng/ml
Procedure: Serum-starved cells (24 hours) were induced with the growth factor HGF (10 ng/mL) at 37° C. for 5 minutes. Where indicated, the cells were treated with peptides (100 ng/ml) prior to induction at 37° C. for 10 minutes (100 ng/mL CD44v6 peptide or control peptide). Following the induction with HGF, cells were washed with ice-cold phosphate-buffered saline (PBS). To detect activated Met and Erk, cells were lysed in sodium dodecyl sulfate (SDS)-sample buffer containing 100 mM dithiothreitol (DTT), boiled and subjected to western blot analysis using antibodies against phospho-Met and ERK. The loading controls were performed on the same blot after stripping (62.5 mM Tris, pH 6.8, 2% SDS, 0.8% DTT) by probing with the Met respectively ERK antibody. Blots were stained using the enhanced chemiluminescence system (Thermo Fisher Scientific, Schwerte, Germany). Bands in western blot analysis were quantified with the program Image J (National Institutes of Health).
To expand the studies to human pancreatic tumors, the highly metastatic human pancreatic carcinoma cells L3.6p1 (Bruns, et al. Neoplasia (1999), 1(1):50-62) were investigated. These cells originate from the […] cells that have been passaged several times in the liver and the pancreas, a step that rendered them more and more metastatic. It was confirmed that Met is dependent on CD44v6 for its activation and signaling in these cells (FIG. 4A). The L3.6p1 cells were treated with HGF in the presence or absence of a human v6 peptide of SEQ ID NO: 2 or SEQ ID NO:6 and Met activation and downstream signaling to ERK was measured.

[2] = test system: c-Met and Erk phosphorylation; assay: HGF-induced c-Met and Erk phosphorylation in HT29 cells (western blot); assay type: cell-based, human
Procedure: FIG. 12: A: Activation of Met and signal transduction induced by HGF depends on CD44v6 in L3.6p1 cells. L3.6p1 cells were treated with the human v6 peptide (human v6 14mer) or the rat v6 peptide as control prior to induction with 10 ng/ml HGF. Activation of Met and ERK was determined in western blot. The numbers refer to the fold induction. The experiment was repeated at least 5 times. B: Activation of c-Met and signal transduction induced by HGF depends on CD44v6 HeLa cells. Starved HeLa cells respectively HT29 cells were incubated with the v6 peptide (human v6 14mer) or a control peptide for 10 minutes at 37° C. and then induced with 25 ng/ml of HGF for the indicated time points. Cells were then either lysed and the lysates were subjected to Western Blot analysis for phospho-Met and Met. C: Activation of c-Met and signal transduction induced by HGF depends on CD44v6 in HT29 cells. HGF-induced c-Met and Erk phosphorylation in HT29 was determined as described above using phospho-specific antibodies. […]
The contribution of CD44v6 to Met signaling in the human epithelial pancreatic cancer cells L3.6p1 (derived from Colo 357), the cervix carcinoma cells HeLa and the colon cancer cells HT29 were analysed using the CD44v6 peptide (v6 14mer; v6 5mer tested as well, data not shown).

[3] = test system: L3.6p1 pancreatic carcinoma cells; assay: Human orthotopic model, L3.6p1 cells in the pancreas of nude mice; assay type: in vivo, mouse; conditions: for outgrowth / size of the primary tumor: 20 μg per injection i.p. three times per week for three weeks
Procedure: In the case of the human orthotopic model, L3.6p1 pancreatic carcinoma cells (passage 24-26) were suspended in Hank's balanced salt solution (Invitrogen, Karlsruhe, Germany) after trypsinization. The cells were injected orthotopically in the pancreas of male nude mice as described (Bruns C J et al. (1999) Neoplasia 1(1):50-62). Two groups of 15 mice each were injected i.p. 7 days later with either the human v6 peptide respectively rat control peptide (20 μg). For all experiments described and depicted herein either the rat 14mer control peptide or the human 14mer peptide were used. All experiments were then repeated with the rat 5mer control peptide or the human 5mer peptide (N-R-W-H-E, SEQ ID NO: 2). […] The injection was repeated three times per week for 21 days. Two days after the last treatment the animals were killed.
7 μm thick paraffin sections were deparaffinized and rehydrated. For P-Met staining antigen unmasking was achieved by boiling the slides in 1 mM EDTA pH 8.0 followed by incubation for 15 minutes at a sub-boiling temperature, for CD31 staining the sections were treated with Proteinase K (8 μg/ml) for 10 min at 37° C. For immunofluorescence staining of P-Met, unspecific binding was blocked with 5% goat serum (DAKO, Glostrup, Denmark) (diluted in 1×PBS/0.3% Triton X-100) for 60 minutes. In the case of immunohistochemistry, endogenous peroxidases were at first blocked with 3% H2O2 in PBS followed by incubation with biotin blocking system (Dako, Glostrup, Denmark) and then unspecific binding was inhibited by incubation with 5% FCS in PBS. The sections were incubated with the P-Met antibody (D26, dilution 1:50 in 1×PBS/1% BSA/0.3% Triton X-100), Met antibody (C-28, dilution 1:50), GFP antibody (sc-101525, dilution 1:50) or antibody (5 μg/ml) over night or VFF18 (5 μg/ml) o/n at 4° C. After washing in PBS the sections were incubated with Alexa Fluor R 546 goat anti-rabbit (in case of immunofluorescence P-Met and Met staining, dilution 1:500) or a biotinylated secondary antibody (for immunohistochemical stainings rabbit anti-rat antibody for VFF18 and CD31, goat anti-rabbit for P-Met, cleaved Caspase-3 and cleaved Caspase-8 and rabbit anti-mouse for GFP, dilution 1:500) for 45 minutes. For DAB (3,3′-diaminobenzidine) staining the sections were treated with a streptavidin-peroxidase conjugate (Dako, Glostrup, Denmark) and developed with DAB substrate system (3,3′-diaminobenzidine; Biozol, Eching, Germany) For immunofluorescence DAPI was used for nuclear staining.
The three CD44v6 specific compounds (v6 5mer, PEG840-v6 5mer and PEG2000-v6 5mer of human origin) and a control peptide were applied in three concentrations (2 μg, 20 μg, 200 μg per injection) three times per week i.p. for 4 weeks. One week before start of the treatment the L3.6p1 tumor cells were orthotopically implanted into nude mice.
Animals were implanted orthotopically with L3.6p1 cells. Tumor growth was allowed for one week before the treatment with the linear v6 14mer, the cyclic v6 8mer as well as the control peptide (rat v6 14mer) was started. All peptides were injected three times per week at a concentration of 0.2, 2 and 10 μg per injection for 3 weeks. At the end of the treatment animals were sacrificed.
A comparison of different CD44v6 peptide derivatives was performed in animals bearing a orthotopic L3.6p1 tumor. 10 groups of 5 animals each received a dose of 20 μg peptide per injection three times per week for 3 weeks with the compounds listed in Table 4. Three weeks after starting the treatment the animals were sacrificed and analyzed for macroscopic metastases and tumor volume.

## KEQWFGNRWHEGYR [human 14mer, human CD44v6 14mer peptide]
[1]
  inhibition of HGF-induced activation (phosphorylation) of Met and ERK: able to prevent activation of Met and of its downstream target Erk
[1]; listed as SEQ ID NO:6
  inhibition of HGF-induced activation (phosphorylation) of Met and ERK: Phosphorylation of both Met and ERK was inhibited
[2]
  inhibition of HGF-induced activation of Met and Erk: able to prevent activation of Met and of its downstream target Erk
[3]; 0.2 μg per injection three times per week for 3 weeks
  metastasis formation (liver): showed liver metastases but the average number of metastases per animal was reduced
[3]; 2 μg per injection i.p. three times per week
  metastasis formation (liver): showed liver metastases but the average number of metastases per animal was reduced
[3]; 10 μg per injection three times per week for 3 weeks
  metastasis formation (liver): complete inhibition of metastatic spreading
[3]; 20 μg i.p. three times per week
  tumor angiogenesis (vessel number and vessel size, CD31 staining): decreased angiogenesis
[3]; 20 μg i.p. three times per week for three weeks
  Met activation in the tumor (immunofluorescence for phospho-Met and Met): completely repressed Met activation
[3]; start one week after implantation, listed as CD44v6 14mer
  outgrowth / size of the primary tumor: significant reduction in tumor growth
[3]; start one week after implantation, listed as human v6 peptide
  outgrowth / size of the primary tumor: strongly repressed
[3]; start one week after implantation, listed as v6 14mer
  outgrowth / size of the primary tumor: strongest reduction of tumor size
[3]; 20 μg per injection i.p. three times per week, start one week after implantation
  metastasis formation (liver): complete inhibition of metastasis
[3]; 20 μg per injection i.p. three times per week, start one week after implantation, listed as human-specific peptide
  metastasis formation (liver): completely inhibited metastasis formation within the liver
